Laboratory results: PMC9084593 (Cell reports, 2022)

Tests used:
[1] = biological target: GlmU (Streptococcus pneumoniae, UniProt Q04KU2); assay: DTNB colorimetric acetyltransferase assay, […] nm; assay type: biochemical; settings: 0.4 mM GlcN-1-P, 1 mM acetyl CoA, 5 mM MgCl2, pH 7.5, 37°C
[2] = biological target: T1, GlmM (Streptococcus pneumoniae, UniProt Q04JI8); assay: GlmU-coupled DTNB colorimetric mutase assay, […] nm; assay type: biochemical; settings: 0.4 mM GlcN-6-P, 2 mM acetyl CoA, 5 mM MgCl2, pH 7.5, 37°C
T1 sequence (Q04JI8 1-450): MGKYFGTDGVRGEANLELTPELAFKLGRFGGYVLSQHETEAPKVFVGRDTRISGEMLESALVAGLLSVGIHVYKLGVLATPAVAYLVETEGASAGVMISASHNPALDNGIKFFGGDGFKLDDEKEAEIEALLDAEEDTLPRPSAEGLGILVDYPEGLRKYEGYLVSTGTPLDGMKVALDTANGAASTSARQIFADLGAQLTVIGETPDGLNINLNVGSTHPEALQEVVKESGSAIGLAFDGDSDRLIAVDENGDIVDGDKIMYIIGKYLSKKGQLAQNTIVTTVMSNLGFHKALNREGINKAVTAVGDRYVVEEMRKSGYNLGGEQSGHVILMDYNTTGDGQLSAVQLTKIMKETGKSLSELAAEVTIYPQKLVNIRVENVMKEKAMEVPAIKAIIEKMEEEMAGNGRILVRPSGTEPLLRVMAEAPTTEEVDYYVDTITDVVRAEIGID

GlmU, sequence (Q04KU2 whole entry): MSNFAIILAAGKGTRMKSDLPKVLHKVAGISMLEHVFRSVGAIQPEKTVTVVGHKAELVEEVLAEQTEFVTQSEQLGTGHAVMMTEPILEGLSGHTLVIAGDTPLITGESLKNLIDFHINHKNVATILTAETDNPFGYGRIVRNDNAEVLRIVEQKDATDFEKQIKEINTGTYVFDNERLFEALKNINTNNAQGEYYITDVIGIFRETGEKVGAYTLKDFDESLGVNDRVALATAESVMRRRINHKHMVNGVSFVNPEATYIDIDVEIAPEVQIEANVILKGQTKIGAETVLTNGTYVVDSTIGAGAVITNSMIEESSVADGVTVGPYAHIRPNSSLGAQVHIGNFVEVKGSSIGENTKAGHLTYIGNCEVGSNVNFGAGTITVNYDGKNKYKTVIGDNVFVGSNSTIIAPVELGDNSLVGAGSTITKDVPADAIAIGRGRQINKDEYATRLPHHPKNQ

SMILES	DTNB colorimetric acetyltransferase assay, 412 nm [1]	GlmU-coupled DTNB colorimetric mutase assay, 412 nm [2]
N[C@H]1[C@@H](OP(=O)(O)O)O[C@H](CO)[C@@H](O)[C@@H]1O [GlcN-1-P]	The GlcN-1-P acetyltransferase activities of the GlmU and the GlmUE315AH330A variant were measured	
N[C@H]1C(O)O[C@H](COP(=O)(O)O)[C@@H](O)[C@@H]1O (some centres unmarked) [GlcN-6-P]		The glucosamine-6-phosphate (GlcN-6-P) mutase activity of GlmM was assayed
